Experimental data as given in ChEMBL document CHEMBL5620427, “Recent advances in Fragment-based strategies against tuberculosis” (Eur J Med Chem, 2023).
Values after ≈ are worked out from the molar mass of the structure shown.

How the values were obtained:
[1] = system: Mycobacterium tuberculosis; assay: Antimycobacterial activity against Mycobacterium tuberculosis H37Rv ATCC 25618 assessed as bacterial growth inhibition; type: functional
[2] = system: Mycobacterium tuberculosis; assay: Antibacterial activity against Mycobacterium tuberculosis ATCC 27294 assessed as reduction in bacterial cell growth measured after 48 hrs by broth microdilution method; type: functional
[3] = system: Mycobacterium tuberculosis; assay: Antimycobacterial activity against Mycobacterium tuberculosis assessed as reduction in microbial growth by broth microdilution method; type: functional
[4] = target: T1, Enoyl-[acyl-carrier-protein] reductase [NADH] (Mycobacterium tuberculosis, UniProt P9WGR1); assay: Binding affinity to Mycobacterium tuberculosis InhA assessed as dissociation constant
T1 sequence (P9WGR1 whole entry): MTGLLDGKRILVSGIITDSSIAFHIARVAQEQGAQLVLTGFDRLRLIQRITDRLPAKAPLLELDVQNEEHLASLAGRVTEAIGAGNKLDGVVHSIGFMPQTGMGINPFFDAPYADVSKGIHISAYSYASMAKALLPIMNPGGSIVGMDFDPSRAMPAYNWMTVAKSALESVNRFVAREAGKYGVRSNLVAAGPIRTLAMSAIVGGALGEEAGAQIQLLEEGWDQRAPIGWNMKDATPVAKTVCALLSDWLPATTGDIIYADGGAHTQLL

[5] = target: T2, Dihydrofolate reductase (Mycobacterium tuberculosis) (UniProt P9WNX1); assay: Binding affinity to Mycobacterium tuberculosis DHFR assessed as change in melting temperature at 5 uM by thermal shift assay
T2 sequence (whole entry): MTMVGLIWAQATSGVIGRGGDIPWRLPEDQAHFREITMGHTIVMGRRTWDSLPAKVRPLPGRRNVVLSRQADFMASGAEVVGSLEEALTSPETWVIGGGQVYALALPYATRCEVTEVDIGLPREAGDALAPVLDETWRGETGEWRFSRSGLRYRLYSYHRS

Dihydrofolate reductase = target: T3, Dihydrofolate reductase (Mycobacterium tuberculosis, UniProt P9WNX1); assay: Binding affinity to Mycobacterium tuberculosis DHFR assessed as dissociation constant
T3 sequence (P9WNX1 whole entry): T2 sequence (whole entry)

[6] = target: T1, Enoyl-[acyl-carrier-protein] reductase [NADH]; assay: Inhibition of Mycobacterium tuberculosis InhA
[7] = Inhibition of Mycobacterium tuberculosis RV0078 EthR2
[8] = system: Mycobacterium tuberculosis; assay: Binding affinity to Mycobacterium tuberculosis RV0078 EthR2 assessed as change in melting temperature at 20 uM by thermal shift assay
[9] = system: Mycobacterium tuberculosis; assay: Antimycobacterial activity against Mycobacterium tuberculosis H37Rv assessed as reduction in bacterial growth incubated for 7 days by resazurin dye based assay; type: functional; conditions: 168 h, time 7 day
[10] = system: Mycobacterium tuberculosis; assay: Antimycobacterial activity against Mycobacterium tuberculosis H37Rv assessed as reduction in bacterial cell growth measured after 7 days by resazurin dye based analysis; type: functional; conditions: 168 h, time 7 day
[11] = system: Mycobacterium tuberculosis; assay: Antimycobacterial activity against Mycobacterium tuberculosis infected in mouse macrophage cells assessed as bacterial growth inhibition; type: functional, organism-based
[12] = Metabolic stability in CD-1 mouse liver microsomes assessed as intrinsic clearance at 20 uM measured after 40 mins by LC-MS/MS analysis; type: ADME, Microsome
[13] = target: HTH-type transcriptional regulator EthR (Mycobacterium tuberculosis) (UniProt P9WMC1); assay: Binding affinity to Mycobacterium tuberculosis EthR assessed as change in melting temperature at 20 uM by thermal shift assay
Chain of HTH-type transcriptional regulator EthR (Mycobacterium tuberculosis) (P9WMC1 whole entry): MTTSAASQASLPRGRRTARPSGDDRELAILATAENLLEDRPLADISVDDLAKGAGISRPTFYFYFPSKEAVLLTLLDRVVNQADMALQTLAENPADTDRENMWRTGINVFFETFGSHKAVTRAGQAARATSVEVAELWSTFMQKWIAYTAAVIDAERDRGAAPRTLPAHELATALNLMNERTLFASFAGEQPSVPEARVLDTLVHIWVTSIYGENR

[14] = system: Mycobacterium tuberculosis; assay: Antimycobacterial activity against Mycobacterium tuberculosis Erdman infected in BALB/c mouse model assessed as log reduction of bacterial load in lung at 200 mg/kg administered via oral gavage for 2 weeks; type: functional
[15] = system: Mycobacterium tuberculosis; assay: Antimycobacterial activity against Mycobacterium tuberculosis […] assessed as reduction in bacterial growth incubated for 48 hrs by resazurin dye based analysis; type: functional
[16] = Inhibition of N-terminal His-tagged wild type Mycobacterium tuberculosis Rv1837c GlcB expressed in Escherichia coli BL21 by chromatography method
[17] = target: HTH-type transcriptional regulator EthR (Mycobacterium tuberculosis, UniProt P9WMC1); assay: Inhibition of Mycobacterium tuberculosis EthR by SPR assay
Chain of HTH-type transcriptional regulator EthR (P9WMC1 whole entry): as above

[18] = target: HTH-type transcriptional regulator EthR (Mycobacterium tuberculosis) (UniProt P9WMC1); assay: Binding affinity to Mycobacterium tuberculosis EthR assessed as change in melting temperature at 100 uM by thermal shift assay
[19] = system: Mycobacterium tuberculosis; assay: Binding affinity to Mycobacterium tuberculosis RV0078 EthR2 assessed as change in melting temperature at 1 uM by thermal shift assay
[20] = Metabolic stability in mouse liver microsomes assessed as intrinsic clearance; type: ADME, Microsome; conditions: read-out: CLH
[21] = system: Mycobacterium tuberculosis; assay: Antibacterial activity against Mycobacterium tuberculosis ATCC 27294 assessed as inhibition of cell growth incubated for 7 days by broth dilution method; type: functional; conditions: ATCC 27294, 168 h, time 7 day
[22] = system: Mycobacterium tuberculosis; assay: Antimycobacterial activity against Mycobacterial tuberculosis assessed as log reduction of bacterial load; type: functional

Structure (SMILES): Nc1c(Cl)cc(S(N)(=O)=O)cc1Cl
- MIC [1]: 833 µM (≈ 201 µg/mL)

Structure (SMILES): NS(=O)(=O)c1cc(Cl)cc(Cl)c1
- MIC99 [2]: 111 µM (≈ 25.1 µg/mL)

Structure (SMILES): O=C(CCCC1CCCCC1)N1CCCC1
- MIC50 [3]: 1 µM

Structure (SMILES): Cc1ccn(C(C)c2nnc(Nc3ccn(Cc4c(F)cccc4Cl)n3)s2)n1 (stereo not drawn)
- Kd [4]: 6.3 µM

Structure (SMILES): Cc1c(C(=O)O)cnn1-c1ccccc1
- ΔTm [5]: 1.2 °C
- Kd (Dihydrofolate reductase): 0.64 µM

Structure (SMILES): Cc1cc(N)n(Cc2ccccc2)n1
- Kd [4]: 3.3 µM

Structure (SMILES): Cc1cncc(CNC(=O)NC2CCN(c3ncccn3)CC2)c1
- Kd [4]: 4.7 µM

Structure (SMILES): CCNc1nnc(Cn2nc(C)cc2C)s1
- IC50 ([6]; read-out: pIC50 (converted)): > 1000 µM

Structure (SMILES): O=C1CC2CCC(C1)N2CCc1ccc(C(F)(F)F)cc1
- IC50 [7]: 0.2 µM
- ΔTm [8]: 0.6 °C

Structure (SMILES): CC(=O)NC1CCN(c2ncccn2)CC1
- IC50 ([6]; read-out: pIC50 (converted)): > 1000 µM

Structure (SMILES): Cc1cc(N)n(Cc2ccc(C(=O)NCc3ccc(F)cc3Cl)cc2)n1
- Kd [4]: 8 µM

Structure (SMILES): O=C(Nc1ccc(I)cc1C(=O)O)c1ccc(Cl)c(Cl)c1
- MIC90 [9]: 300 µM (≈ 131 µg/mL)
- IC50 ([6]; read-out: IC50): 38 µM

Structure (SMILES): COc1ccc(-c2nc(O)c3ccccc3n2)cc1
- MIC99 [10]: 31.5 µg/mL (≈ 125 µM)

Structure (SMILES): O=C(CCc1c[nH]c2ccccc12)Nc1c(C(=O)O)cnn1-c1ccccc1
- ΔTm [5]: 5.1 °C
- Kd (Dihydrofolate reductase): 0.017 µM

Structure (SMILES): O=C(NCCC(F)(F)F)c1ccc(-c2noc(C3CC3)n2)cc1
- EC50 [11]: 0.07 µM
- CLH [12]: 69 µL/min
- ΔTm [13]: 10.2 °C
- log(activity) [14]: 2

Structure (SMILES): O=C(O)/C=C/c1cccc(C(F)(F)F)c1
- ΔTm [13]: 3.2 °C

Structure (SMILES): O=C(O)/C(O)=C/C(=O)c1ccccc1Br
- MIC99 [15]: 6.25 µM (≈ 1.69 µg/mL)
- IC50 [16]: 0.6 µM

Structure (SMILES): COc1ccc(CCC(=O)N2CCC(SS[C@@H]3CCN(C(=O)CCc4ccc(OC)cc4)C3)C2)cc1 (stereo partly drawn)
- IC50 [17]: 1.1 µM

Structure (SMILES): O=C(O)/C(O)=C/C(=O)c1ccc2[nH]ccc2c1
- IC50 [16]: 0.02 µM

Structure (SMILES): O=C(NCc1cccnc1)NC1CCCCC1
- IC50 ([6]; read-out: pIC50 (converted)): > 1000 µM

Structure (SMILES): CNCc1ccc(N2CCCCC2)cc1
- ΔTm [18]: 3.8 °C
- IC50 [17]: > 100 µM

Structure (SMILES): O=C1CC2CCC(C1)N2CCc1ccc(Cl)cc1
- IC50 [7]: 1 µM
- ΔTm [19]: 3.4 °C
- microsomal CLint [20]: 60 µL/min/mg

Structure (SMILES): Cc1cc(N)n(Cc2nnc(Nc3ccn(Cc4c(F)cccc4Cl)n3)s2)n1
- Kd [4]: 7.1 µM

Structure (SMILES): O=C(OCCCC1CCCC1)N1CCCC1
- MIC50 [3]: 1 µM

Structure (SMILES): CC(C)(C)OC(=O)Nc1ccc(I)cc1C(=O)O
- MIC90 [9]: 300 µM (≈ 109 µg/mL)
- IC50 ([6]; read-out: IC50): 280 µM

Structure (SMILES): O=C(O)c1cc(Cl)c(O)c(Cl)c1
- MIC [21]: 971 µM (≈ 201 µg/mL)

Structure (SMILES): CC1(C)CCC(Cc2cc(O)c(-c3ccccc3)c(=O)[nH]2)CC1
- IC50 ([6]; read-out: pIC50 (converted)): 10 µM
- log(activity) [22]: 1.5

Structure (SMILES): CCOC(=O)c1cc(Cl)c(O)c(Cl)c1
- MIC99 [2]: < 53 µM

Structure (SMILES): O=C(CCC1CCCC1)N1CCCC1
- ΔTm [18]: 3 °C

Structure (SMILES): N#Cc1ccc(N2CCC(CCC(=O)N3CCCC3)CC2)cc1
- ΔTm [18]: 7.5 °C
